Legend:
CXCR4 R30A = target: T1, CXCR4 R30A (Homo sapiens, UniProt P61073, R30A); assay: Competitive binding to CXCR4 mutant R30A (12G5, CHO cells); design: key to the marks not given beside the values; conditions: TM1, class of reduction vs wild-type CXCR4, 12G5 competition, averages of at least three independent experiments
T1 construct: expressed in transfected cells
Procedure: (§1) Plasmid pcDNA3-CXCR4 and mutated pcDNA3-CXCR4 were extracted and transfected into CHO cells using Lipofectamine 2000 according to the manufacturer’s guidelines. The selective medium containing G418 at a concentration of 1.2 mg/ml was applied to isolate stably transfected cells. CHO cells expressing wild-type CXCR4 and mutant CXCR4 were obtained using fluorescence-activated cell sorting (FACS).
(§2) All of the CXCR4 mutants were prepared using PCR technology. Briefly, pairs of asymmetrical primers containing the desired amino acid mutations (Supplementary Tables S1 and S2), each complementary to opposite strands of the pcDNA3–CXCR4, were designed for amplification by Q5® High-Fidelity DNA polymerase and the generation of mutated constructs. The methylated pcDNA3–CXCR4 templates were digested by DpnI. The mutated pcDNA3–CXCR4 was transformed into competent E. coli TOP10 for long-term storage and amplification.
(§3) The procedure for the CXCR4 competitive binding experiments was published previously. Briefly, CXCR4 antibody 12G5 (250 ng/ml) was incubated with 5 × 10^5 cells and varying concentrations of unlabeled compounds in a final volume of 100 μl of assay buffer (PBS with 0.5% BSA and 0.05% NaN3) in 96-well plates for 40 min on ice, after being washed with assay buffer once. The cells were incubated with FITC-conjugated second antibody IgG for 30 min on ice, then washed with assay buffer three times. The fluorescence intensity was measured for excitation at 485 nm and emission at 535 nm using multimode plate reader (PerkinElmer). The IC50 values were calculated using graphpad Prism 7. Experiments were performed at least three times.

CXCR4 Y45A = target: T2, CXCR4 Y45A (Homo sapiens, UniProt P61073, Y45A); assay: Competitive binding to CXCR4 mutant Y45A (12G5, CHO cells); conditions: TM1, class of reduction vs wild-type CXCR4, 12G5 competition, averages of at least three independent experiments
T2 construct: expressed in transfected cells
T2 sequence (P61073 whole entry Y45A): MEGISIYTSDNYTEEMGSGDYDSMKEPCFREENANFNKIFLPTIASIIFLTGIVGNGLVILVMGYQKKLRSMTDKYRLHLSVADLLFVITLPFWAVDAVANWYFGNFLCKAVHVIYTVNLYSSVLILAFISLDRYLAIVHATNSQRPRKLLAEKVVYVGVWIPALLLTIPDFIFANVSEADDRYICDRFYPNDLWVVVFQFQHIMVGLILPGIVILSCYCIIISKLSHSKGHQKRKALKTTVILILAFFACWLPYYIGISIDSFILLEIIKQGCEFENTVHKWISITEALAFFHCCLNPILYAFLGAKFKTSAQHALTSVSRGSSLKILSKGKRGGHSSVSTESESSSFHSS
Procedure: as §1, §2, §3

CXCR4 F87A = target: T3, CXCR4 F87A (Homo sapiens, UniProt P61073, F87A); assay: Competitive binding to CXCR4 mutant F87A (12G5, CHO cells); conditions: TM2, class of reduction vs wild-type CXCR4, 12G5 competition, averages of at least three independent experiments
T3 construct: expressed in transfected cells
T3 sequence (P61073 whole entry F87A): as the sequence (P61073 whole entry Y45A) above, with A45Y, F87A counted along it
Procedure: as §1, §2, §3

CXCR4 V112A = target: T4, CXCR4 V112A (Homo sapiens, UniProt P61073, V112A); assay: Competitive binding to CXCR4 mutant V112A (12G5, CHO cells); conditions: TM3, class of reduction vs wild-type CXCR4, 12G5 competition, averages of at least three independent experiments
T4 construct: expressed in transfected cells
T4 sequence (P61073 whole entry V112A): as the sequence (P61073 whole entry Y45A) above, with A45Y, V112A counted along it
Procedure: as §1, §2, §3

CXCR4 H113A = target: T5, CXCR4 H113A (Homo sapiens, UniProt P61073, H113A); assay: Competitive binding to CXCR4 mutant H113A (12G5, CHO cells); conditions: TM3, class of reduction vs wild-type CXCR4, 12G5 competition, averages of at least three independent experiments
T5 construct: expressed in transfected cells
T5 sequence (P61073 whole entry H113A): as the sequence (P61073 whole entry Y45A) above, with A45Y, H113A counted along it
Procedure: as §1, §2, §3

CXCR4 Y116A = target: T6, CXCR4 Y116A (Homo sapiens, UniProt P61073, Y116A); assay: Competitive binding to CXCR4 mutant Y116A (12G5, CHO cells); conditions: TM3, class of reduction vs wild-type CXCR4, 12G5 competition, averages of at least three independent experiments
T6 construct: expressed in transfected cells
T6 sequence (P61073 whole entry Y116A): as the sequence (P61073 whole entry Y45A) above, with A45Y, Y116A counted along it
Procedure: as §1, §2, §3

CXCR4 T117A = target: T7, CXCR4 T117A (Homo sapiens, UniProt P61073, T117A); assay: Competitive binding to CXCR4 mutant T117A (12G5, CHO cells); conditions: TM3, class of reduction vs wild-type CXCR4, 12G5 competition, averages of at least three independent experiments
T7 construct: expressed in transfected cells
T7 sequence (P61073 whole entry T117A): as the sequence (P61073 whole entry Y45A) above, with A45Y, T117A counted along it
Procedure: as §1, §2, §3

CXCR4 W161A = target: T8, CXCR4 W161A (Homo sapiens, UniProt P61073, W161A); assay: Competitive binding to CXCR4 mutant W161A (12G5, CHO cells); conditions: TM4, class of reduction vs wild-type CXCR4, 12G5 competition, averages of at least three independent experiments
T8 construct: expressed in transfected cells
T8 sequence (P61073 whole entry W161A): as the sequence (P61073 whole entry Y45A) above, with A45Y, W161A counted along it
Procedure: as §1, §2, §3

CXCR4 D171A = target: T9, CXCR4 D171A (Homo sapiens, UniProt P61073, D171A); assay: Competitive binding to CXCR4 mutant D171A (12G5, CHO cells); conditions: TM4, class of reduction vs wild-type CXCR4, 12G5 competition, averages of at least three independent experiments
T9 construct: expressed in transfected cells
T9 sequence (P61073 whole entry D171A): as the sequence (P61073 whole entry Y45A) above, with A45Y, D171A counted along it
Procedure: as §1, §2, §3

CXCR4 Q200A = target: T10, CXCR4 Q200A (Homo sapiens, UniProt P61073, Q200A); assay: Competitive binding to CXCR4 mutant Q200A (12G5, CHO cells); design: key to the marks not given beside the values; conditions: TM5, class of reduction vs wild-type CXCR4, 12G5 competition, averages of at least three independent experiments
T10 construct: expressed in transfected cells
T10 sequence (P61073 whole entry Q200A): as the sequence (P61073 whole entry Y45A) above, with A45Y, Q200A counted along it
Procedure: as §1, §2, §3

CXCR4 I259A = target: T11, CXCR4 I259A (Homo sapiens, UniProt P61073, I259A); assay: Competitive binding to CXCR4 mutant I259A (12G5, CHO cells); design: key to the marks not given beside the values; conditions: TM6, class of reduction vs wild-type CXCR4, 12G5 competition, averages of at least three independent experiments
T11 construct: expressed in transfected cells
T11 sequence (P61073 whole entry I259A): as the sequence (P61073 whole entry Y45A) above, with A45Y, I259A counted along it
Procedure: as §1, §2, §3

CXCR4 I284A = target: T12, CXCR4 I284A (Homo sapiens, UniProt P61073, I284A); assay: Competitive binding to CXCR4 mutant I284A (12G5, CHO cells); conditions: TM7, class of reduction vs wild-type CXCR4, 12G5 competition, averages of at least three independent experiments
T12 construct: expressed in transfected cells
T12 sequence (P61073 whole entry I284A): as the sequence (P61073 whole entry Y45A) above, with A45Y, I284A counted along it
Procedure: as §1, §2, §3

CXCR4 [1] = conditions: cited from earlier work
Text: To understand the receptor–ligand recognition mechanism involving CXCR4 and its antagonists, here in this study we conducted a series of comparative analyses of the biological activities and CXCR4 binding sites of eleven known CXCR4 antagonists, including the three mentioned above, using cell-based bioassays, CXCR4 site-directed mutagenesis and computer-aided molecular modeling. These antagonists studied here were chosen from different representative structural types including both D-peptides (i.e., HC4319, DV1, DV1 dimer, and DV3) and a representative counterpart L-peptide (i.e., V1) derived ...

CXCR4 [2] = target: CXCR4 (Homo sapiens, UniProt P61073); assay: SDF-1α-induced calcium mobilization assay in SupT1 cells (Fluo-4); assay type: cell-based; design: host or cells: SupT1 cells; conditions: 50 nM SDF-1α
CXCR4 (Homo sapiens, UniProt P61073), sequence (P61073 whole entry): as the sequence (P61073 whole entry Y45A) above, with A45Y counted along it
Procedure: Figure 2 The inhibitory effect of the antagonists on SDF-1α-induced cell chemotaxis and calcium mobilization in SupT1 cells The antagonists and concentrations used were labeled in each lane. (A) The inhibition of cell migration by the noted antagonists. SupT1 cells pre-treated with or without CXCR4 antagonists were seeded in the upper well and cell migrated by 2 nM SDF-1α. Migrated cells without SDF-1α were used as a negative (0%) and migrated cell induced by SDF-1α as a positive control (100%). […] SupT1 cells were treated with or without CXCR4 antagonists and activated by 50 nM SDF-1α. To directly compare the inhibitory effect of the antagonists on calcium mobilization, the vehicle background and baseline were removed using GraphPad and Origin. The data were averages of at least three independent experiments.
SupT1 cells were collected and washed using HHBS buffer (Hanks’ Balanced Salt solution supplemented with 20 mM HEPES) and incubated with 1 mM probenecid (Energy Chemical, China) and 4 μM Fluo-4 (AAT bioquest, U.S.A.) for 37°C for 30 min with vortex every 5 min. After being washed with HHBS, cells were suspended in PBS at 2 × 10^6/ml and seeded 200 μl cells and various concentrations of compounds per well in 96-well plate. Following 50 nM SDF-1α was added to each well, the fluorescence intensity was measured (Ex/Em = 496/516 nm) using EnSpire® multimode plate reader (PerkinElmer, U.S.A.).

T1 sequence (P61073 whole entry R30A): as the sequence (P61073 whole entry Y45A) above, with R30A, A45Y counted along it

## c1cc(CN2CCCNCCNCCCNCC2)ccc1CN1CCCNCCNCCCNCC1 [AMD3100]
CXCR4 R30A
  Competitive receptor binding activity, CXCR4 R30A: +++
CXCR4 Y45A
  Competitive receptor binding activity, CXCR4 Y45A: ++ (10–29% reduction compared with wild-type CXCR4)
CXCR4 F87A
  Competitive receptor binding activity, CXCR4 F87A: ++ (10–29% reduction compared with wild-type CXCR4)
CXCR4 V112A
  Competitive receptor binding activity, CXCR4 V112A: +++
CXCR4 H113A
  Competitive receptor binding activity, CXCR4 H113A: ++ (10–29% reduction compared with wild-type CXCR4)
CXCR4 Y116A
  Competitive receptor binding activity, CXCR4 Y116A: ++ (10–29% reduction compared with wild-type CXCR4)
CXCR4 T117A
  Competitive receptor binding activity, CXCR4 T117A: +++
CXCR4 W161A
  Competitive receptor binding activity, CXCR4 W161A: +++
CXCR4 D171A
  Competitive receptor binding activity, CXCR4 D171A: + (30–60% reduction compared with wild-type CXCR4)
CXCR4 Q200A
  Competitive receptor binding activity, CXCR4 Q200A: +++
CXCR4 I259A
  Competitive receptor binding activity, CXCR4 I259A: +++
CXCR4 I284A
  Competitive receptor binding activity, CXCR4 I284A: +++
CXCR4 [1]
  Potency (in words): submicromolar
CXCR4 [2]; at 5 nM
  Inhibition of calcium mobilization (in words): very weak inhibition

## NCCCCN(Cc1nc2ccccc2[nH]1)[C@H]1CCCc2cccnc21 [AMD11070]
CXCR4 R30A
  Competitive receptor binding activity, CXCR4 R30A: +++
CXCR4 Y45A
  Competitive receptor binding activity, CXCR4 Y45A: ++ (10–29% reduction compared with wild-type CXCR4)
CXCR4 F87A
  Competitive receptor binding activity, CXCR4 F87A: + (30–60% reduction compared with wild-type CXCR4)
CXCR4 V112A
  Competitive receptor binding activity, CXCR4 V112A: +++
CXCR4 H113A
  Competitive receptor binding activity, CXCR4 H113A: + (30–60% reduction compared with wild-type CXCR4)
CXCR4 Y116A
  Competitive receptor binding activity, CXCR4 Y116A: +++
CXCR4 T117A
  Competitive receptor binding activity, CXCR4 T117A: +++
CXCR4 W161A
  Competitive receptor binding activity, CXCR4 W161A: ++ (10–29% reduction compared with wild-type CXCR4)
CXCR4 D171A
  Competitive receptor binding activity, CXCR4 D171A: + (30–60% reduction compared with wild-type CXCR4)
CXCR4 Q200A
  Competitive receptor binding activity, CXCR4 Q200A: +++
CXCR4 I259A
  Competitive receptor binding activity, CXCR4 I259A: +++
CXCR4 I284A
  Competitive receptor binding activity, CXCR4 I284A: +++
CXCR4 [1]
  Potency (in words): nanomolar potent
CXCR4 [2]; SUP-T1, at 5 nM
  inhibition at 0.005 µM: 71%

Reference: PMC10987480, “Biological and mutational analyses of CXCR4–antagonist interactions and design of new antagonistic analogs” (Bioscience Reports, 2023)
